According to patent US6300345A, “Cyanoguanidines as cell proliferation inhibitors” (Leo Pharmacuetical Products Ltd. A/S (L.o slashed.vens …, priority 1997, dated 2001):

Key:
Assay type in all cases: cell-based
[1] = tested on: human small cell lung carcinoma (NYH); experiment: Inhibition of tumour cell proliferation in vitro ([3H]thymidine incorporation), NYH; details: 24 hours
Method: (§1) The inhibition of tumour cell proliferation was studied using different types of human cancer cell lines. The cell lines under investigation were small cell lung carcinoma (NYH), non small cell lung carcinoma (NCI-H460), and breast cancer (MCF-7) using the following general procedure:
(§2) The cells were cultured in vitro for 24 hours in the presence of the compound under investigation. DNA synthesis was measured by incorporation of [3H]thymidine, and the median inhibitory concentrations (IC50) of the compounds were calculated.

[2] = tested on: human non small cell lung cancer (NCI-H460); experiment: Inhibition of tumour cell proliferation in vitro ([3H]thymidine incorporation), NCI-H460; details: NCI-H460, 24 hours
Method: as §1, §2

[3] = tested on: human breast cancer (MCF-7); experiment: Inhibition of tumour cell proliferation in vitro ([3H]thymidine incorporation), MCF-7; details: MCF7, MCF-7, 24 hours
Method: as §1, §2

Row | IC50 [1] [nM] | IC50 [2] [nM] | IC50 [3] [nM] | SMILES
1 | 4.4 | 65 | 26 | N#CN=C(NCCCCCCCCCCCCNC(=NC#N)Nc1cccnc1)Nc1cccnc1 [Example No. 6, 1,12-Bis(N'-cyano-N"-3-pyridylguanidino)dodecane]
2 | 0.91 | 65 | 6.6 | N#CN=C(NCCCCCCCCCCNC(=NC#N)Nc1ccncc1)Nc1ccncc1 [Example No. 8, 1,10-Bis(N'-cyano-N"-4-pyridylguanidino)decane]
3 | 0.5 | 69 | 13 | N#CN=C(NCCCCCCCCCCCCNC(=NC#N)Nc1ccncc1)Nc1ccncc1 [Example No. 14, 1,12-Bis(N'-cyano-N"-4-pyridylguanidino)dodecane]
